# In PMC6429331, “Synthesis, Molecular Docking and β-Glucuronidase Inhibitory Potential of Indole Base Oxadiazole Derivatives” (Molecules, 2019):
# Legend:
# [1] = target: T1, β-glucuronidase (Bos taurus, UniProt A3KMY8); experiment: β-Glucuronidase assay (p-nitrophenyl-β-D-glucuronide, absorbance at 405 nm); format: biochemical; settings: classified into three groups from Table 1
# T1 sequence (A3KMY8 24-652): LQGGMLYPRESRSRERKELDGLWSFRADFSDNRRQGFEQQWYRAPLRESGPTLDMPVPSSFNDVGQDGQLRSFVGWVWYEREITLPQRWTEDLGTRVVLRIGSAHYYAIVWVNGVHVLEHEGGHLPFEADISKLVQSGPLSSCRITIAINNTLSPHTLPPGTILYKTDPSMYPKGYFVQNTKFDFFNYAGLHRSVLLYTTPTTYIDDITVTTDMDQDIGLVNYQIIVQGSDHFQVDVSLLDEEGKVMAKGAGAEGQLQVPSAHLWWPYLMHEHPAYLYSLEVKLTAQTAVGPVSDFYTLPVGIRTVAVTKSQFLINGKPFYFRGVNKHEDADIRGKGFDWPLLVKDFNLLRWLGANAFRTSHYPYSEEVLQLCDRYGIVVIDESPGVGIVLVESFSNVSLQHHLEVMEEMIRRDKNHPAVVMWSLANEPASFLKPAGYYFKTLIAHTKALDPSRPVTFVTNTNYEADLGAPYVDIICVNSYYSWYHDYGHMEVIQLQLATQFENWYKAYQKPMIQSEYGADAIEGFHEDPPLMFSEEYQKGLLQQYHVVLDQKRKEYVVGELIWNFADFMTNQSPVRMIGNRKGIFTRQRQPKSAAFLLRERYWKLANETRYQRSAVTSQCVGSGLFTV
# Procedure: β-glucuronidase activity was determined in accordance to method used by measuring absorbance at 405 nm of p-nitrophenol formed substrate by spectrophotometric method. 250 µL was the volume of total reaction. Reaction mixture containing 5 µL of test compound solution, 185 µL of 0.1M acetate buffer, and 10 µL of enzyme solution were incubated for 30 min at 37 °C. At 405 nm the plates were recorded on multiplate reader (SpectaMax plus 384) after the addition of 50 µL of 0.4mM p-nitrophenyl-β-D-glucuronide. Experiments were performed for triplicate.
activity group according to inhibitory IC50 values [1],melting point [°C],SMILES
–,307 to 308,"O=[N+]([O-])c1ccccc1-c1nnc(Cc2cc3ccccc3[nH]2)o1 [Compound 10, 2-((1H-indol-2-yl)methyl)-5-(2-nitrophenyl)-1,3,4-oxadiazole]"
low active group,300 to 301,"Cc1ccccc1-c1nnc(Cc2cc3ccccc3[nH]2)o1 [Compound 2, 2-((1H-indol-2-yl)methyl)-5-(o-tolyl)-1,3,4-oxadiazole]"
–,314 to 315,"Oc1ccccc1-c1nnc(Cc2cc3ccccc3[nH]2)o1 [Compound 3, 2-(5-((1H-indol-2-yl)methyl)-1,3,4-oxadiazol-2-yl) phenol]"
moderate active group,–,"Oc1ccc(O)c(-c2nnc(Cc3cc4ccccc4[nH]3)o2)c1 [Compound 5, 2-(5-((1H-indol-2-yl)methyl)-1,3,4-oxadiazol-2-yl) benzene-1,4-diol]"
–,294 to 295,"Fc1ccccc1-c1nnc(Cc2cc3ccccc3[nH]2)o1 [Compound 18, 2-((1H-indol-2-yl)methyl)-5-(2-fluorophenyl)-1,3,4-oxadiazole]"
moderate active group,311 to 312,"Oc1cccc(-c2nnc(Cc3cc4ccccc4[nH]3)o2)c1 [Compound 4, 3-(5-((1H-indol-2-yl)methyl)-1,3,4-oxadiazol-2-yl) phenol]"

# The next lines start with the compound.
SMILES,activity group according to inhibitory IC50 values [1],melting point [°C]
"Oc1cccc(-c2nnc(Cc3cc4ccccc4[nH]3)o2)c1O [Compound 6, 3-(5-((1H-indol-2-yl)methyl)-1,3,4-oxadiazol-2-yl) benzene-1,2-diol]",Highly active group,317 to 318
"c1ccc2[nH]c(Cc3nnc(-c4ccncc4)o3)cc2c1 [Compound 17, 2-((1H-indol-2-yl)methyl)-5-(pyridin-4-yl)-1,3,4-oxadiazole]",–,284 to 285
"Oc1ccc(-c2nnc(Cc3cc4ccccc4[nH]3)o2)c(O)c1 [Compound 8, 4-(5-((1H-indol-2-yl)methyl)-1,3,4-oxadiazol-2-yl) benzene-1,3-diol]",–,318 to 319
"c1cncc(-c2nnc(Cc3cc4ccccc4[nH]3)o2)c1 [Compound 16, 2-((1H-indol-2-yl)methyl)-5-(pyridin-3-yl)-1,3,4-oxadiazole]",–,279 to 280
"COc1ccc(O)c(-c2nnc(Cc3cc4ccccc4[nH]3)o2)c1 [Compound 13, 2-(5-((1H-indol-2-yl)methyl)-1,3,4-oxadiazol-2-yl)-4-methoxyphenol]",–,313 to 314
"Oc1ccc(-c2nnc(Cc3cc4ccccc4[nH]3)o2)cc1O [Compound 7, 4-(5-((1H-indol-2-yl)methyl)-1,3,4-oxadiazol-2-yl) benzene-1,2-diol]",Highly active group,316 to 317
"Cc1ccc(-c2nnc(Cc3cc4ccccc4[nH]3)o2)cc1 [Compound 1, 2-((1H-indol-2-yl)methyl)-5-(p-tolyl)-1,3,4-oxadiazole]",low active group,304 to 305
"O=[N+]([O-])c1ccc(-c2nnc(Cc3cc4ccccc4[nH]3)o2)cc1 [Compound 12, 2-((1H-indol-2-yl)methyl)-5-(4-nitrophenyl)-1,3,4-oxadiazole]",–,309 to 310
"O=[N+]([O-])c1cccc(-c2nnc(Cc3cc4ccccc4[nH]3)o2)c1 [Compound 11, 2-((1H-indol-2-yl)methyl)-5-(3-nitrophenyl)-1,3,4-oxadiazole]",–,303 to 304
